# Where two headings read alike, the source gives them in different places.
# Key:
# [1] = test system: C. neoformans ATCC 208821; test: MIC against C. neoformans ATCC 208821, CO-ADD; type: cell-based; settings: Cryptococcus neoformans
# Source text: (§1) Antimicrobial evaluation of the pure compounds against A. baumannii ATCC 19606, Candida albicans ATCC 90028, Cryptococcus neoformans ATCC 208821, E. coli ATCC 25922, K. pneumoniae ATCC 700603, P. aeruginosa ATCC 27853, and S. aureus ATCC 43300 (MRSA) was undertaken at the Community for Open Antimicrobial Drug Discovery at The University of Queensland (St. Lucia, Queensland, Australia) according to standard protocols as previously described.
# [2] = test system: P. aeruginosa ATCC 27853; test: MIC against P. aeruginosa ATCC 27853, CO-ADD; type: cell-based; settings: Pseudomonas aeruginosa
# Source text: as §1
# [3] = Cytotoxicity on HEK293 human embryonic kidney cells
# Description: (§2) All compounds were also evaluated for their cytotoxicity against human embryonic kidney cells (HEK-293) and any haemolytic activity against human red blood cells.
# [4] = test system: S. aureus ATCC 43300 (MRSA); test: MIC against S. aureus ATCC 43300 (MRSA), CO-ADD; type: cell-based, Staphylococcus aureus; settings: for MIC: Staphylococcus aureus, read-out: MIC S. a
# Source text: as §1
# [5] = test system: A. baumannii ATCC 19606; test: MIC against A. baumannii ATCC 19606, CO-ADD; type: cell-based; settings: Acinetobacter baumannii
# Source text: as §1
# [6] = test system: human red blood cells; test: Haemolytic activity on human red blood cells; settings: concentration of compound at 10% haemolytic activity on human red blood cells; mean of two experiments
# [7] = test system: C. albicans ATCC 90028; test: MIC against C. albicans ATCC 90028, CO-ADD; type: cell-based, Candida albicans; settings: for MIC: Candida albicans
# Source text: as §1
# [8] = test system: human red blood cells
# [9] = test system: E. coli ATCC 25922; test: MIC against E. coli ATCC 25922, CO-ADD; type: cell-based; settings: Escherichia coli
# Source text: as §1
# [10] = test system: K. pneumoniae ATCC 700603; test: MIC against K. pneumoniae ATCC 700603, CO-ADD; type: cell-based; settings: Klebsiella pneumoniae
# Source text: as §1
# [11] = test system: Mycotypha microspora; parameters: method as in PMID 25312126; settings: cited from earlier work
# [12] = test system: Elymus repens; parameters: method as in PMID 25312126; settings: cited from earlier work
# [13] = test system: S. aureus; parameters: method as in PMID 19333565, doi:10.1590/S0100-40422007000700012; settings: cited from earlier work
# [14] = test system: Sclerotinia sclerotiorum; parameters: method as in PMID 19333565, doi:10.1590/S0100-40422007000700012; settings: cited from earlier work
# [15] = test system: B. subtilis; parameters: method as in PMID 19333565, doi:10.1590/S0100-40422007000700012; settings: cited from earlier work
# [16] = test system: S. cerevisiae; parameters: method as in PMID 19333565, doi:10.1590/S0100-40422007000700012; settings: cited from earlier work
# [17] = test system: Mycobacteria tuberculosis; parameters: method as in PMID 19333565, doi:10.1590/S0100-40422007000700012; settings: cited from earlier work
# [18] = test system: M. marinum BSG101; test: Antimycobacterial bioluminescence assay of pure compounds, M. marinum; settings: Mycobacterium marinum, BSG101, 72 h
# Description: Antimicrobial evaluation against M. abscessus and M. marinum was undertaken using in-house assays with the bioluminescent derivatives M. abscessus BSG301 [63] and M. marinum BSG101 [64]. […] Specifically, mycobacterial cultures were grown with shaking at 200 rpm in Middlebrook 7H9 broth (Fort Richard, Auckland, New Zealand) supplemented with 10% Middlebrook ADC enrichment media (Fort Richard, Auckland, New Zealand), 0.4% glycerol (Sigma-Aldrich, St. Louis, MO, USA), and 0.05% tyloxapol (Sigma-Aldrich, St. Louis, MO, USA). M. abscessus was grown at 37 °C and M. marinum at 28 °C. Cultures were grown until they reached the stationary phase (approximately 3–5 days for M. abscessus BSG301 and 7–10 days for M. marinum BSG101) and then diluted in MHB supplemented with 10% Middlebrook ADC enrichment media and 0.05% tyloxapol to give an optical density at 600 nm (OD600) of 0.001, which is the equivalent of ~10^6 bacteria per mL. Pure compounds were dissolved in DMSO and added to the wells of a black 96-well plate (Nunc, Thermo Scientific, Waltham, MA, USA) at doubling dilutions with a maximum concentration of 128 mg/mL. […] Bacterial luminescence was measured at regular intervals over 72 h using a Victor X-3 luminescence plate reader with an integration time of 1 s. […]
# [19] = test system: Bacillus subtilis; parameters: method as in PMID 4629229; settings: disk diffusion assays; cited from earlier work
# [20] = test system: Aspergillus flavus; parameters: method as in PMID 4629229, PMID 9797310, PMID 19801865; settings: cited from earlier work
# [21] = in vitro; settings: human
# Description: as §2
# [22] = test system: E. coli; parameters: method as in PMID 4629229; settings: disk diffusion assays; cited from earlier work
# [23] = test system: HEK293 human embryonic kidney cells
# Description: as §2
# [24] = test system: Microsporum gypseum; parameters: method as in PMID 4629229, PMID 9797310, PMID 19801865; settings: cited from earlier work
# [25] = test system: Aspergillus fumigatus; parameters: method as in PMID 4629229, PMID 9797310, PMID 19801865; settings: cited from earlier work
# [26] = test system: E. coli; parameters: method as in doi:10.1002/ejoc.200800404; settings: agar diffusion assay; cited from earlier work
# [27] = test system: Bacillus megaterium; parameters: method as in doi:10.1002/ejoc.200800404; settings: agar diffusion assay; cited from earlier work
# [28] = test system: Microbotryum violaceum; parameters: method as in doi:10.1002/ejoc.200800404; settings: agar diffusion assay; cited from earlier work
# [29] = ATCC208821, C. neoformans ATCC 208821, mean of two experiments, read-out: MIC C. n
# [30] = ATCC27853, P. aeruginosa ATCC 27853, mean of two experiments, read-out: MIC P. a
# [31] = S. aureus ATCC 43300 (MRSA), mean of two experiments
# [32] = ATCC19606, A. baumanii ATCC 19606, mean of two experiments, read-out: MIC A. b
# [33] = ATCC90028, C. albicans ATCC 90028, mean of two experiments, read-out: MIC C. a
# [34] = ATCC25922, E. coli ATCC 25922, mean of two experiments, read-out: MIC E. c
# [35] = ATCC700603, K. pneumoniae ATCC 700603, mean of two experiments, read-out: MIC K. p
smiles,measurement,setting,value
"COc1c(CC(C)O)c2c3c(CC(C)O)c(OC)c(=O)c4c(O)cc5c(c6c(cc(O)c(c1=O)c62)OCO5)c43 (stereo not drawn) [compound 7, cercosporin]",MIC,[1]; [29],> 60 µM
same,MIC,[2]; [30],> 60 µM
same,CC50,[3],25.3 µM
same,activity against MRSA,[4]; MRSA,potent activity
same,MIC,[4]; [31],≤ 0.47 µM
same,MIC,[5]; [32],> 60 µM
same,HC10,[6],>60 µM
same,MIC,[7]; [33],> 60 µM
same,haemolytic activity,[8],not haemolytic
same,MIC,[9]; [34],> 60 µM
same,MIC,[10]; [35],> 60 µM
"C/C=C/c1cc2c(c(=O)o1)C(=O)[C@@H](O)[C@H](C)O2 [compound 2, radicinin]",MIC,"[1]; ATCC208821, read-out: MIC C. n",> 135 µM
same,MIC,"[2]; ATCC27853, read-out: MIC P. a",> 135 µM
same,antifungal activity against Mycotypha microspora,[11],moderate antifungal activity
same,antifungal activity against Elymus repens,[12],moderate antifungal activity
same,MIC,[4],> 135 µM
same,MIC,"[5]; ATCC19606, read-out: MIC A. b",> 135 µM
same,MIC,"[7]; ATCC90028, read-out: MIC C. a",> 135 µM
same,MIC,"[9]; ATCC25922, read-out: MIC E. c",> 135 µM
same,MIC,"[10]; ATCC700603, read-out: MIC K. p",> 135 µM
"C[C@H]1CCC/C=C/C(=O)c2c(O)cc(O)cc2CC(=O)O1 [compound 6, dehydro-curvularin]",MIC,"[1]; ATCC208821, read-out: MIC C. n",> 110 µM
same,MIC,"[2]; ATCC27853, read-out: MIC P. a",> 110 µM
same,antimicrobial activity against S. aureus,[13],inactive
same,antimicrobial activity against Sclerotinia sclerotiorum,[14],inactive
same,CC50,[3],1.27 µM
same,MIC,[4],> 110 µM
same,antimicrobial activity against B. subtilis,[15],inactive
same,MIC,"[5]; ATCC19606, read-out: MIC A. b",> 110 µM
same,HC10,[6],>110 µM
same,antimicrobial activity against S. cerevisiae,[16],inactive
same,MIC,"[7]; ATCC90028, read-out: MIC C. a",> 110 µM
same,MIC against M. tuberculosis,[17],40 µM
same,antimicrobial activity against Mycobacteria tuberculosis,[17],active
same,MIC,[18],32 µg/mL
same,MIC,"[9]; ATCC25922, read-out: MIC E. c",> 110 µM
same,MIC,"[10]; ATCC700603, read-out: MIC K. p",> 110 µM
"CN[C@H](CC(C)C)C(=O)N[C@H]1C(=O)N[C@@H](CC(N)=O)C(=O)N[C@H]2C(=O)N[C@H]3C(=O)N[C@H](C(=O)N[C@H](C(=O)O)c4cc(O)cc(O)c4-c4cc3ccc4O)[C@H](O)c3ccc(c(Cl)c3)Oc3cc2cc(c3O[C@@H]2O[C@H](CO)[C@@H](O)[C@H](O)[C@H]2O[C@H]2C[C@](C)(N)[C@H](O)[C@H](C)O2)Oc2ccc(cc2Cl)[C@H]1O [vancomycin, reference compound]",MIC,[4],0.7 µM
"C[C@@H]1C[C@H]2O[C@@H]2/C=C\C=C\C(=O)Cc2c(Cl)c(O)cc(O)c2C(=O)O1 [compound 10, radicicol]",MIC,[1]; [29],> 88 µM
same,MIC,[2]; [30],> 88 µM
same,activity against B. subtilis,[19],active
same,activity against Aspergillus flavus,[20],activity
same,MIC,[4]; [31],> 88 µM
same,MIC,[5]; [32],> 88 µM
same,CC50,[21],> 88 µM
same,antifungal activity against C. albicans,[7],moderate antifungal activity
same,MIC,[7]; [33],44 µM
same,HC10,[8]; human,>88 µM
same,MIC,[18],64 µg/mL
same,MIC,[9]; [34],> 88 µM
same,activity against E. coli,[22],none of the compounds were active
same,MIC,[10]; [35],> 88 µM
"CC/C(=C(\c1ccccc1)c1ccc(OCCN(C)C)cc1)c1ccccc1 [tamoxifen, reference compound]",IC50,[3]; HEK-293 human embryonic kidney cells,24 µM
"CC(O)CCC(O)/C=C/C(=O)O (stereo not drawn) [compound 1, (E)-4,7-dihydroxyoct-2-enoic acid]",MIC,[1]; [29],> 184 µM
same,MIC,[2]; [30],> 184 µM
same,cytotoxicity,[23],no cytotoxic or haemolytic activity
same,MIC,[4]; [31],> 184 µM
same,MIC,[5]; [32],> 184 µM
same,MIC,[7]; [33],> 184 µM
same,MIC,[9]; [34],> 184 µM
same,MIC,[10]; [35],> 184 µM
"CC1CCCCCC(=O)c2c(O)cc(O)cc2CC(=O)O1 (stereo not drawn) [compound 5, curvularin]",MIC,[1]; [29],> 109 µM
same,MIC,[2]; [30],> 109 µM
same,antimicrobial activity against S. aureus,[13],inactive
same,antimicrobial activity against Sclerotinia sclerotiorum,[14],inactive
same,MIC,[4]; [31],> 109 µM
same,antimicrobial activity against B. subtilis,[15],inactive
same,MIC,[5]; [32],> 109 µM
same,antimicrobial activity against S. cerevisiae,[16],inactive
same,MIC,[7]; [33],> 109 µM
same,antimicrobial activity against Mycobacteria tuberculosis,[17],inactive
same,MIC,[9]; [34],> 109 µM
same,activity against E. coli,[22],none of the compounds were active
same,MIC,[10]; [35],> 109 µM
"C[C@H]1CCC/C=C/[C@@H]2C[C@H](O)C[C@H]2[C@H](O)/C=C/C(=O)O1 [compound 8, brefeldin A]",MIC,[1]; [29],> 114 µM
same,MIC,[2]; [30],> 114 µM
same,activity against Microsporum gypseum,[24],activity
same,CC50,[3],0.89 µM
same,MIC,[4]; [31],> 114 µM
same,MIC,[5]; [32],> 114 µM
same,HC10,[6],>114 µM
same,antifungal activity against C. albicans,[7],moderate antifungal activity
same,MIC,[7]; [33],57 µM
same,activity against Aspergillus fumigatus,[25],activity
same,MIC,[9]; [34],> 114 µM
same,activity against E. coli,[22],none of the compounds were active
same,MIC,[10]; [35],> 114 µM
"OC(Cn1cncn1)(Cn1cncn1)c1ccc(F)cc1F [fluconazole, reference compound]",MIC,[1]; [29],26 µM
same,MIC,[7]; [33],0.4 µM
"C[C@@H]1CCC(=O)CCC(=O)O[C@H](C)CC[C@H](O)/C=C/C(=O)O1 [compound 4, tetrahydropyrenophorin]",MIC,[1]; [29],> 102 µM
same,MIC,[2]; [30],> 102 µM
same,antibacterial activity against E. coli,[26],moderate antibacterial activity
same,MIC,[4]; [31],> 102 µM
same,MIC,[5]; [32],> 102 µM
same,antibacterial activity against Bacillus megaterium,[27],moderate antibacterial activity
same,MIC,[7]; [33],> 102 µM
same,antifungal activity against Microbotryum violaceum,[28],antifungal activity
same,MIC,[9]; [34],> 102 µM
same,MIC,[10]; [35],> 102 µM
"C/C1=C\C[C@]2(C)C(=O)C(O)=C([C@H](C)CO)[C@H]2C/C=C(\C)[C@@H](O)CC/C(C)=C/CC1 [compound 3, terpestacin]",MIC,[1]; [29],> 79 µM
same,MIC,[2]; [30],> 79 µM
same,MIC,[4]; [31],> 79 µM
same,MIC,[5]; [32],> 79 µM
same,MIC,[7]; [33],> 79 µM
same,MIC,[9]; [34],> 79 µM
same,MIC,[10]; [35],> 79 µM
